Test results: ChEMBL document CHEMBL5126594, “Entry inhibition of hepatitis B virus using cyclosporin O derivatives with peptoid side chain incorporation” (Bioorg Med Chem, 2022)

Tests used:
Hepatitis B virus [1] = test: Antiviral activity against Hepatitis B virus infected in human HepG2 cells expressing NTCP assessed as inhibition of viral entry by measuring intracellular HBV DNA at 1 uM preincubated with compound for 2 hrs followed by viral infection and measured after 3 hrs by qPCR analysis relative to control; type: functional; conditions: time 5 hrs
Hepatitis B virus [2] = test: Antiviral activity against Hepatitis B virus infected in human HepG2 cells expressing NTCP assessed as inhibition of viral entry by measuring intracellular HBV DNA preincubated with compound for 2 hrs followed by viral infection and measured after 3 hrs by qPCR analysis; type: functional, organism-based
[3] = Cytotoxicity against human HepG2 cells assessed as reduction in cell viability incubated for 24 hrs by MTS assay; type: toxicity, cell-based; conditions: read-out: LC50
hERG (KCNH2) [4] = target: T1, hERG (KCNH2) (Homo sapiens, UniProt Q12809); test: Inhibition of hERG incubated for 2 hrs by fluorescence polarization based assay; type: toxicity
T1 sequence (Q12809 whole entry): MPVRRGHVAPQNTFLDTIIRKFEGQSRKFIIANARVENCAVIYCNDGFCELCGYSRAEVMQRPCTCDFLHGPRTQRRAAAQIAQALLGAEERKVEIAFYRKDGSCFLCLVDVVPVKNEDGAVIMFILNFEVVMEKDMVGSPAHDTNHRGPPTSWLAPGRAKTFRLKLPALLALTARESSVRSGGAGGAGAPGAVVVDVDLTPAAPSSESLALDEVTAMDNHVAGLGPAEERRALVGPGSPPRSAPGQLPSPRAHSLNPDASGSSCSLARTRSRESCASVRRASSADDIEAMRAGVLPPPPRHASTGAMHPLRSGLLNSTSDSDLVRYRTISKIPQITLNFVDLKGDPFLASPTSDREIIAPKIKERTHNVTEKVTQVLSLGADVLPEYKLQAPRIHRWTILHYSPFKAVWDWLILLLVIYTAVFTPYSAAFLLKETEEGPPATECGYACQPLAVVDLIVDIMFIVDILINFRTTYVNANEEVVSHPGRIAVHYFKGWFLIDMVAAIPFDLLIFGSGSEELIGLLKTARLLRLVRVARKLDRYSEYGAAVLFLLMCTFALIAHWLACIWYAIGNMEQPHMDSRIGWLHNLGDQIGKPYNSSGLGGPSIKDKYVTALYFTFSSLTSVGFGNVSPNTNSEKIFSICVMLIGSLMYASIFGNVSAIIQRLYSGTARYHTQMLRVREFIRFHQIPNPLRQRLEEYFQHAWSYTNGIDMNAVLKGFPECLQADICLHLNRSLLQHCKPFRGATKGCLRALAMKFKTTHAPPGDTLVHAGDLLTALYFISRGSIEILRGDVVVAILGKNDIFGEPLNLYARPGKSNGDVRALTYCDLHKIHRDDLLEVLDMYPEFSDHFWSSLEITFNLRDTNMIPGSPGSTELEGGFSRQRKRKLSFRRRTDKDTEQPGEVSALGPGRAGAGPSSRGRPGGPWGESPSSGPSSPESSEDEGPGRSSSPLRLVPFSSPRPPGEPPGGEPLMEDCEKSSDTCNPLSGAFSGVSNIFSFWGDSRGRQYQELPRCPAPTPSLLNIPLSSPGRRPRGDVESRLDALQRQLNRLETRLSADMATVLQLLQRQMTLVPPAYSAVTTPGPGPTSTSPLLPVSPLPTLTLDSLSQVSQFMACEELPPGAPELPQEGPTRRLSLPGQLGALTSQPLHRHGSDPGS

CYP1A2 = target: T2, CYP1A2 (Homo sapiens, UniProt P05177); test: Inhibition of human CYP1A2 at 10 uM preincubated for 10 mins followed by NADPH addition and measured after 20 mins by luciferin reagent based luminescence analysis; type: ADME; conditions: time 30 min
T2 sequence (P05177 whole entry): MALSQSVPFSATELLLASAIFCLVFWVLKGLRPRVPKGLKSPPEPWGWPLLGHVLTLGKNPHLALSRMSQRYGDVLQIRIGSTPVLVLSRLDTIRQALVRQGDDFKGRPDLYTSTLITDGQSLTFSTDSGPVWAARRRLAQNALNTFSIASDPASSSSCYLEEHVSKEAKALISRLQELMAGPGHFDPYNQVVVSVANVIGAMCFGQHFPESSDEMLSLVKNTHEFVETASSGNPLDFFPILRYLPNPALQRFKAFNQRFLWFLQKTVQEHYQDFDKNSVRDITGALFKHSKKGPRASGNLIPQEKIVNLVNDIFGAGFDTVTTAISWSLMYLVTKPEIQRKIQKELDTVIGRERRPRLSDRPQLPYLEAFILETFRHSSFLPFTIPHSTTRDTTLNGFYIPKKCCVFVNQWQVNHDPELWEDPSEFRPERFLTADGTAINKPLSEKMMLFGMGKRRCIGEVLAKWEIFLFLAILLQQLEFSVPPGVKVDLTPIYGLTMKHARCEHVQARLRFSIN

CYP2C9 = CYP2C9 (Homo sapiens, UniProt P11712); test: Inhibition of human CYP2C9 at 10 uM preincubated for 10 mins followed by NADPH addition and measured after 20 mins by luciferin reagent based luminescence analysis; type: ADME; conditions: time 30 min
CYP2C9, sequence (P11712 whole entry): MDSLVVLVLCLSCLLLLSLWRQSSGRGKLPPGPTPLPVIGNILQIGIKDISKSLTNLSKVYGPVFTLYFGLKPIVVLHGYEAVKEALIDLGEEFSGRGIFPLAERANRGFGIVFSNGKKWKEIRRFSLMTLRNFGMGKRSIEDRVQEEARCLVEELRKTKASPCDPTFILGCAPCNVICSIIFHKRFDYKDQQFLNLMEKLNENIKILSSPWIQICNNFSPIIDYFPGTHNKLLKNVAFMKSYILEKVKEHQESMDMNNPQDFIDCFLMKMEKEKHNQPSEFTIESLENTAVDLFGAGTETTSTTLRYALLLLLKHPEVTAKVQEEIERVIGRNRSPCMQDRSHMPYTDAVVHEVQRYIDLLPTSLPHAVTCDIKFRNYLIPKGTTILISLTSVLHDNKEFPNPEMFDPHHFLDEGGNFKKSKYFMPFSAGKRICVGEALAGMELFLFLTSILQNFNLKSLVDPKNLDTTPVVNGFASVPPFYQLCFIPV

CYP2C19 = CYP2C19 (Homo sapiens, UniProt P33261); test: Inhibition of human CYP2C19 at 10 uM preincubated for 10 mins followed by NADPH addition and measured after 20 mins by luciferin reagent based luminescence analysis; type: ADME; conditions: time 30 min
CYP2C19, sequence (P33261 whole entry): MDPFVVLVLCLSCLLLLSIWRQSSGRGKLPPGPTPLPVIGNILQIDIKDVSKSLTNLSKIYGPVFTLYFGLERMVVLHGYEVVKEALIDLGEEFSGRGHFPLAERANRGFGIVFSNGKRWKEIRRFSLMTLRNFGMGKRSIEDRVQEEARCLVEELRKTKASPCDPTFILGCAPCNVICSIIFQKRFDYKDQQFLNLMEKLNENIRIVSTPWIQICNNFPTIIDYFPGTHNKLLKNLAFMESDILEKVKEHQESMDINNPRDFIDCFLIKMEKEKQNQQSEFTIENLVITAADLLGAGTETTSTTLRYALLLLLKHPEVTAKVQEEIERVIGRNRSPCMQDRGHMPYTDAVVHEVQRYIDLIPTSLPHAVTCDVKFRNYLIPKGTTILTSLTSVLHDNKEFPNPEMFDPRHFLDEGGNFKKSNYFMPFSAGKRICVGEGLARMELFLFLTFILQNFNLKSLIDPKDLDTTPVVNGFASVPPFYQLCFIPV

CYP2D6 = CYP2D6 (Homo sapiens, UniProt P10635); test: Inhibition of human CYP2D6 at 10 uM preincubated for 10 mins followed by NADPH addition and measured after 20 mins by luciferin reagent based luminescence analysis; type: ADME; conditions: time 30 min
CYP2D6, sequence (P10635 whole entry): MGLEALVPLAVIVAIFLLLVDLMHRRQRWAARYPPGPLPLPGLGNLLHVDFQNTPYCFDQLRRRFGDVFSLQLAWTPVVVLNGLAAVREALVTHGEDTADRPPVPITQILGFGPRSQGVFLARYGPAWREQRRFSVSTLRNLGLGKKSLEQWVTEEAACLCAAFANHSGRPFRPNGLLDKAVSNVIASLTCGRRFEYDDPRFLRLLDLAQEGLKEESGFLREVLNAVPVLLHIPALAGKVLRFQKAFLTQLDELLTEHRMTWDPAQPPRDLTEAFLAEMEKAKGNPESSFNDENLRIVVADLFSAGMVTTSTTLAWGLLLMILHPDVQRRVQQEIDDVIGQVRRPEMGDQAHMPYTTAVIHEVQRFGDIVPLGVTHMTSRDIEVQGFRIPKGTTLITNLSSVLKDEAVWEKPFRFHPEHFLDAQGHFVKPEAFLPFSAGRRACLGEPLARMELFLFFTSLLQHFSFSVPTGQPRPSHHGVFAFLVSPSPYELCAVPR

CYP3A4 = CYP3A4 (Homo sapiens, UniProt P08684); test: Inhibition of human CYP3A4 at 10 uM preincubated for 10 mins followed by NADPH addition and measured after 20 mins by luciferin reagent based luminescence analysis; type: ADME; conditions: time 30 min
CYP3A4, sequence (P08684 whole entry): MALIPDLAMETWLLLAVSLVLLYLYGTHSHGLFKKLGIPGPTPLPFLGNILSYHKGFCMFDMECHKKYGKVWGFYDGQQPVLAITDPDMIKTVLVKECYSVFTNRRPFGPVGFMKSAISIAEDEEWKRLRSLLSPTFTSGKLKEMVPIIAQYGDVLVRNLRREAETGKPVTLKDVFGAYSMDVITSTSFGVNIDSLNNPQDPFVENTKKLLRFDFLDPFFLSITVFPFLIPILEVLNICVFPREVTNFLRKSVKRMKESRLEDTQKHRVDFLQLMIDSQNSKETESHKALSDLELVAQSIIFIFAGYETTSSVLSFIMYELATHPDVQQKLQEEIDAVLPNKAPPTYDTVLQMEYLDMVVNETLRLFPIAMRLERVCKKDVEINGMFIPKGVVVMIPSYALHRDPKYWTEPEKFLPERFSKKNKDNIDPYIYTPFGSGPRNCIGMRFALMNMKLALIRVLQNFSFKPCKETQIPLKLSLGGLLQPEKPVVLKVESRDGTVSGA

hERG (KCNH2) [5] = target: T1, hERG (KCNH2); test: in vitro
Description: Inhibition of hERG at 10 uM incubated for 2 hrs by fluorescence polarization based assay relative to control

Compound: CCC[C@@H]1NC(=O)[C@H](CC(C)C)N(C)C(=O)[C@H](CC(C)C)N(C)C(=O)CN(CCO)C(=O)[C@H](CC(C)C)N(C)C(=O)[C@@H](C)NC(=O)[C@@H](CCC(N)=O)NC(=O)[C@H](CC(C)C)N(C)C(=O)[C@H](C(C)C)NC(=O)[C@H](CC(C)C)N(C)C(=O)CN(C)C1=O
- inhibition at 1 µM (Hepatitis B virus [1]): 78%
- IC50 (Hepatitis B virus [2]): 0.36 µM
- CC50 at 24 h [3]: > 200 µM
- EC50 at 2 h (hERG (KCNH2) [4]): > 10 µM
- inhibition at 20 min, 10 µM (CYP1A2): 8.4%
- inhibition at 20 min, 10 µM (CYP2C9): 14.8%
- inhibition at 20 min, 10 µM (CYP2C19): 29.4%
- inhibition at 20 min, 10 µM (CYP2D6): 35.1%
- inhibition at 20 min, 10 µM (CYP3A4): 35.5%
- inhibition at 2 h, 10 µM (hERG (KCNH2) [5]): 19.1%
